In PubChem BioAssay AID1963961 (Molecular Pharmacology Branch, DTP, NCI, 2024):

System: K98450-129-R-PDC multicell spheroids, viability
Assay: Anticancer human tumor K98450-129-R-PDC patient-derived colon adenocarcinoma cell line growth inhibition [PI3K]
Conditions: for IC50: curve of first compound; for viability, T/C: stronger effect = lower value
How it was run: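 High-throughput combination screen: PI3K inhibitors crossed with targeted small molecules on complex spheroids of tumor cells, HUVEC and MSCs at 37 degrees C, 5% CO2. Top concentration was at or near clinical Cmax (otherwise 10 microM), with half-log decrements.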

[1] = second compound 0.00316 µM, first compound 0.0316 µM
[2] = second compound 0.00316 µM, first compound 0.1 µM
[3] = second compound 0.00316 µM, first compound 0.316 µM
[4] = second compound 0.00316 µM, first compound 1 µM
[5] = second compound 0.00316 µM, first compound 3.16 µM
[6] = second compound 0.00316 µM, first compound 10 µM
[7] = second compound 0.01 µM, first compound 0.0316 µM
[8] = second compound 0.01 µM, first compound 0.1 µM
[9] = second compound 0.01 µM, first compound 0.316 µM
[10] = second compound 0.01 µM, first compound 1 µM
[11] = second compound 0.01 µM, first compound 3.16 µM
[12] = second compound 0.01 µM, first compound 10 µM
[13] = second compound 0.0316 µM, first compound 0.0316 µM
[14] = second compound 0.0316 µM, first compound 0.1 µM
[15] = second compound 0.0316 µM, first compound 0.316 µM
[16] = second compound 0.0316 µM, first compound 1 µM
[17] = second compound 0.0316 µM, first compound 3.16 µM
[18] = second compound 0.0316 µM, first compound 10 µM
[19] = second compound 0.1 µM, first compound 0.0316 µM
[20] = second compound 0.1 µM, first compound 0.1 µM
[21] = second compound 0.1 µM, first compound 0.316 µM
[22] = second compound 0.1 µM, first compound 1 µM
[23] = second compound 0.1 µM, first compound 3.16 µM
[24] = second compound 0.1 µM, first compound 10 µM
[25] = second compound 0.316 µM, first compound 0.0316 µM
[26] = second compound 0.316 µM, first compound 0.1 µM
[27] = second compound 0.316 µM, first compound 0.316 µM
[28] = second compound 0.316 µM, first compound 1 µM
[29] = second compound 0.316 µM, first compound 3.16 µM
[30] = second compound 0.316 µM, first compound 10 µM
[31] = second compound 1 µM, first compound 0.0316 µM
[32] = second compound 1 µM, first compound 0.1 µM
[33] = second compound 1 µM, first compound 0.316 µM
[34] = second compound 1 µM, first compound 1 µM
[35] = second compound 1 µM, first compound 3.16 µM
[36] = second compound 1 µM, first compound 10 µM
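Further: spheroids exposed to agents for seven days before read-out.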

C#Cc1c(F)ccc2cc(O)cc(-c3ncc4c(N5CC6CCC(C5)N6)nc(OCC56CCCN5CC(F)C6)nc4c3F)c12 (stereo unspecified) + CC(Nc1ccc2c(c1)OCCn1cc(N3C(=O)OCC3C(F)F)nc1-2)C(N)=O
IC50 (second compound 0.00316 µM): > 10 µM
IC50 (second compound 0.01 µM): > 10 µM
IC50 (second compound 0.0316 µM): > 10 µM
IC50 (second compound 0.1 µM): > 10 µM
IC50 (second compound 0.316 µM): > 10 µM
IC50 (second compound 1 µM): > 10 µM
viability, T/C [1]: 116%
viability, T/C [2]: 101%
viability, T/C [3]: 104%
viability, T/C [4]: 96.2%
viability, T/C [5]: 101%
viability, T/C [6]: 92.7%
viability, T/C [7]: 113%
viability, T/C [8]: 92.1%
viability, T/C [9]: 109%
viability, T/C [10]: 95.2%
viability, T/C [11]: 91.9%
viability, T/C [12]: 91.3%
viability, T/C [13]: 104%
viability, T/C [14]: 100%
viability, T/C [15]: 103%
viability, T/C [16]: 91.2%
viability, T/C [17]: 98.5%
viability, T/C [18]: 87.7%
viability, T/C [19]: 101%
viability, T/C [20]: 106%
viability, T/C [21]: 97%
viability, T/C [22]: 99.9%
viability, T/C [23]: 97.5%
viability, T/C [24]: 91.5%
viability, T/C [25]: 88.6%
viability, T/C [26]: 93%
viability, T/C [27]: 99.4%
viability, T/C [28]: 89.1%
viability, T/C [29]: 99.1%
viability, T/C [30]: 77.8%
viability, T/C [31]: 86%
viability, T/C [32]: 92.3%
viability, T/C [33]: 92.6%
viability, T/C [34]: 86.4%
viability, T/C [35]: 88.6%
viability, T/C [36]: 72.8%

CC1(C)CCC(Nc2ncc(C(F)(F)F)c(-c3c[nH]c4c(P(C)(C)=O)c(C#N)ccc34)n2)CN1 (stereo unspecified) + CC(Nc1ccc2c(c1)OCCn1cc(N3C(=O)OCC3C(F)F)nc1-2)C(N)=O
IC50 (second compound 0.00316 µM): > 10 µM
IC50 (second compound 0.01 µM): > 10 µM
IC50 (second compound 0.0316 µM): > 10 µM
IC50 (second compound 0.1 µM): > 10 µM
IC50 (second compound 0.316 µM): > 10 µM
IC50 (second compound 1 µM): > 10 µM
viability, T/C [1]: 108%
viability, T/C [2]: 103%
viability, T/C [3]: 95.8%
viability, T/C [4]: 67.7%
viability, T/C [5]: 64.1%
viability, T/C [6]: 63.8%
viability, T/C [7]: 116%
viability, T/C [8]: 98.2%
viability, T/C [9]: 92.7%
viability, T/C [10]: 68.9%
viability, T/C [11]: 67.2%
viability, T/C [12]: 62.2%
viability, T/C [13]: 116%
viability, T/C [14]: 109%
viability, T/C [15]: 81.5%
viability, T/C [16]: 66.8%
viability, T/C [17]: 69.3%
viability, T/C [18]: 65.5%
viability, T/C [19]: 105%
viability, T/C [20]: 107%
viability, T/C [21]: 82.6%
viability, T/C [22]: 66.9%
viability, T/C [23]: 67.8%
viability, T/C [24]: 61.2%
viability, T/C [25]: 100%
viability, T/C [26]: 101%
viability, T/C [27]: 85.4%
viability, T/C [28]: 69.3%
viability, T/C [29]: 66.7%
viability, T/C [30]: 60.7%
viability, T/C [31]: 91.9%
viability, T/C [32]: 90.1%
viability, T/C [33]: 79.1%
viability, T/C [34]: 67.5%
viability, T/C [35]: 69.6%
viability, T/C [36]: 60.6%

Cn1cnc2c(F)c(Nc3ccc(Br)cc3Cl)c(C(=O)NOCCO)cc21 + CC(Nc1ncnc2nc[nH]c12)c1cc2cccc(Cl)c2c(=O)n1-c1ccccc1
IC50 (second compound 0.0316 µM): 0.897 µM
IC50 (second compound 0.1 µM): 0.984 µM
IC50 (second compound 0.316 µM): 0.909 µM
IC50 (second compound 1 µM): 0.699 µM
IC50 (second compound 3.16 µM): 0.822 µM
IC50 (second compound 10 µM): 0.725 µM
viability, T/C (second compound 0.0316 µM, first compound 0.00949 µM): 95.4%
viability, T/C (second compound 0.0316 µM, first compound 0.03 µM): 99.9%
viability, T/C (second compound 0.0316 µM, first compound 0.0949 µM): 86.3%
viability, T/C (second compound 0.0316 µM, first compound 0.3 µM): 70.7%
viability, T/C (second compound 0.0316 µM, first compound 0.949 µM): 50.1%
viability, T/C (second compound 0.0316 µM, first compound 3 µM): 24.9%
viability, T/C (second compound 0.1 µM, first compound 0.00949 µM): 99.5%
viability, T/C (second compound 0.1 µM, first compound 0.03 µM): 88.6%
viability, T/C (second compound 0.1 µM, first compound 0.0949 µM): 82.2%
viability, T/C (second compound 0.1 µM, first compound 0.3 µM): 91.5%
viability, T/C (second compound 0.1 µM, first compound 0.949 µM): 50.9%
viability, T/C (second compound 0.1 µM, first compound 3 µM): 24.2%
viability, T/C (second compound 0.316 µM, first compound 0.00949 µM): 100%
viability, T/C (second compound 0.316 µM, first compound 0.03 µM): 103%
viability, T/C (second compound 0.316 µM, first compound 0.0949 µM): 80.2%
viability, T/C (second compound 0.316 µM, first compound 0.3 µM): 65%
viability, T/C (second compound 0.316 µM, first compound 0.949 µM): 57.2%
viability, T/C (second compound 0.316 µM, first compound 3 µM): 16%
viability, T/C (second compound 1 µM, first compound 0.00949 µM): 89.8%
viability, T/C (second compound 1 µM, first compound 0.03 µM): 78.4%
viability, T/C (second compound 1 µM, first compound 0.0949 µM): 77.3%
viability, T/C (second compound 1 µM, first compound 0.3 µM): 71.7%
viability, T/C (second compound 1 µM, first compound 0.949 µM): 41.9%
viability, T/C (second compound 1 µM, first compound 3 µM): 22.2%
viability, T/C (second compound 3.16 µM, first compound 0.00949 µM): 92.8%
viability, T/C (second compound 3.16 µM, first compound 0.03 µM): 80.4%
viability, T/C (second compound 3.16 µM, first compound 0.0949 µM): 80.9%
viability, T/C (second compound 3.16 µM, first compound 0.3 µM): 57.9%
viability, T/C (second compound 3.16 µM, first compound 0.949 µM): 55.9%
viability, T/C (second compound 3.16 µM, first compound 3 µM): 15.5%
viability, T/C (second compound 10 µM, first compound 0.00949 µM): 87.8%
viability, T/C (second compound 10 µM, first compound 0.03 µM): 85.6%
viability, T/C (second compound 10 µM, first compound 0.0949 µM): 70%
viability, T/C (second compound 10 µM, first compound 0.3 µM): 76.4%
viability, T/C (second compound 10 µM, first compound 0.949 µM): 42%
viability, T/C (second compound 10 µM, first compound 3 µM): 14.1%
